# Data reported in patent US20250381276A1, “SMALL MOLECULE CONJUGATED CHARGE-ALTERING RELEASABLE TRANSPORTERS FOR NUCLEIC ACID DELIVERY” (The Board of Trustees of the Leland Stanford Junior …, priority 2022, published 2025).
# Test system: peripheral blood lymphocytes
# Assay: Lymphocyte depletion assay (peripheral blood T and B cells)
# Format: in vivo, BALB/c mice
# Settings: single i.v. dose, 24 hours vs baseline; FTY720 12.9 μg, mRNA 7.5 μg/mouse
# Description: For in vivo administration, CART formulations were prepared adding 18.75 μg of mRNA (18.75 uL of a 1 mg/mL stock) to 205 uL of PBS (pH 5.5) and to this 26.22 uL of CART (from a 2 mmol/L stock in DMSO) were added and mixed for 20 seconds. A total of 100 uL of this formulation was administered i.v. into the tail vein of each mouse, injecting two mice at a time per each treatment group and resulting in a final mRNA dose of 7.5 ug/mouse. CART formulations were injected immediately after mixing (within 20 s).
# Blood was drawn from the submandibular vein of the mice immediately before and 24 hours after treatment with Fluc mRNA-CART complexes prepared and administered as above. In both cases approximately 1 mL of venous blood was collected per mouse into FACS tubes pre-filled with 500 μL of Ca^2+-EDTA. […]
# One of the potential benefits of functionalizing an mRNA delivery vehicle with a small molecule is to exploit the biological properties of the small molecule for therapeutic purposes. […] Before treatment, mice were bled to measure the baseline levels of circulating T cells (CD3+) and B cells (B220+) calculated through flow cytometry as a percentage of the total peripheral blood lymphocytes. The mice were then bled 24 hours after treatment and the levels of peripheral T and B lymphocytes were measured again (FIG. 5). […]
structure (smiles),measurement,value
"CCCCCCCCc1ccc(CCC(N)(CO)CO)cc1 [FTY720, fingolimod]",Reduction in the percentage of circulating T cells (CD3+),84%
